Experimental findings from patent publication EP0322747B1, “A brain neuron protecting agent containing a dihydropyridine compound” (priority 1987, dated 1989) are described below.

Holding throughout (assay): Prophylactic effect on ischemic breakdown of cytoskeletal proteins, 5-minute brain ischemia-reperfusion model
Holding throughout (assay type): in vivo, gerbil

One assay concerns calspectin. The note with it: number of brain sites with significant effect. As to the method: (§1) A gerbil was immobilized in supine position and median section was performed in the cervical region under local anesthesia. Then, the bilateral common carotid arteries were stripped off carefully not to injure the vagus and sympathetic nerves running in parallel, . Then, each common carotid artery was obstructed with a small clip and after an interval of 5, 10 or 15 minutes, the clips were removed. The animal was decapitated immediately, 4 days or 1 week after the removal of the clips, and the brain was isolated. Untreated animals served as controls and animals undergoing sham operation (involving the stripping procedure only) were also investigated. The isolated brain was sectioned under ice-cooling into the frontal cortex (upper 2/3, approximately corresponding to the 1st to the 5th layer, ∼80 mg), striatum (∼20 mg) and hippocampus (∼50 mg) and each portion was homogenized in 4 times volume of (v/w) of 0.01 M phosphate buffer (pH 7.2). Each homogenate was centrifuged at 100,000 G for 30 minutes to obtain a supernatant. Equal parts of these supernatants were subjected to SDS-polyacrylamide gel (5%) electrophoresis and the proteins, namely MAP-2 (MW: 250-260K) calspectin (MW: 230-240K) and clathrin (MW: 180K), were quantified by measuring the absorbances at 560 nm with a densitometer (CS-930, Shimazu), and the proportion of each protein to the total water-soluble protein (exactly, the integral sum of the absorbance areas) was calculated. In addition, the relative percentage to the value of the untreated control group was also calculated.
(§2) Two series of experiments were carried out. […] One hour after the reperfusion, the animal was killed by decapitation and the brain was removed. […] One hour after the final administration (day 5), the animal was decapitated and the brain was isolated. The isolated brain was subjected to fractionation and electrophoresis as described above.

The next assay has as its system MAP-2. How it is done: as §1, §2
In the next assay the test system is clathrin. The following applies: for Total score, Clathrin: number of brain sites with significant effect. As to the method: as §1, §2
The mark [1] stands for this setting: Left: dosed 1 hour before ischemia, killed 1 hour after ischemia.
[2] abbreviates: Right: dosed 1 hour before ischemia and for 4 subsequent days.
Where [3] appears, read: Left: dosed 1 hour before ischemia, killed 1 hour after ischemia, number of brain sites with significant effect.
The mark [4] stands for this setting: Right: dosed 1 hour before ischemia and for 4 subsequent days, number of brain sites with significant effect.
Where [5] appears, read: sum of left and right (in brackets).

`COC(=O)C1=C(C)NC(C)=C(C(=O)OCCN(C)Cc2ccccc2)C1c1cccc([N+](=O)[O-])c1` (centres unmarked) [Nicardipine, nicardipine]: the “Total score, Calspectin” value with calspectin (setting [1]) and in the assay on calspectin (setting [2]) was 0/0 (0) each time. Moreover, the “Total score, MAP-2” value in the assay with MAP-2 (setting [3]) stood at 2; in the assay with MAP-2 (setting [4]), 2; with MAP-2 (setting [5]), 4. The “Total score, Clathrin” value with clathrin (setting [1]) and in the assay with clathrin (setting [2]) was 0/0 (0) each time.

Take `COCCOC(=O)C1=C(C)NC(C)=C(C(=O)OC(C)C)C1c1cccc([N+](=O)[O-])c1` (centres unmarked) [Nimodipine, nimodipine]: the “Total score, Calspectin” value in the assay with calspectin (setting [1]) and in the assay with calspectin (setting [2]) was 0/0 (0) in each case. Besides, the entries for the “Total score, MAP-2” value with MAP-2 (setting [3]), in the assay on MAP-2 (setting [4]) and in the assay on MAP-2 (setting [5]) were 2, 1 and 3, respectively. In addition, the Clathrin protein concentration in the assay with clathrin (Cortex, 0.01 mg/kg s.c. 1 hour before ischemia, 1 hour after ischemia) is reported as 81.9± 5.5 % of normal value; in the assay with clathrin (Cortex, 0.1 mg/kg s.c. 1 hour before ischemia and once a day for 4 days, 4 days after ischemia) it was 52.3± 9.5 % of normal value; in the assay with clathrin (Cortex, 0.1 mg/kg s.c. 1 hour before ischemia, 1 hour after ischemia), 81.8± 6.3 % of normal value; in the assay on clathrin (Cortex, 1 mg/kg s.c. 1 hour before ischemia and once a day for 4 days, 4 days after ischemia), 55.8± 8.5 % of normal value; in the assay with clathrin (Cortex, 1 mg/kg s.c. 1 hour before ischemia, 1 hour after ischemia) it was 85.9± 4.0 % of normal value; with clathrin (Cortex, 10 mg/kg s.c. 1 hour before ischemia and once a day for 4 days, 4 days after ischemia), 54.6± 5.7 % of normal value. Further, the Clathrin protein concentration in the assay on clathrin (Hippocampus, 0.01 mg/kg s.c. 1 hour before ischemia, 1 hour after ischemia) is 52.1± 3.3 % of normal value; in the assay with clathrin (Hippocampus, 0.1 mg/kg s.c. 1 hour before ischemia and once a day for 4 days, 4 days after ischemia), 46.6± 4.2 % of normal value; in the assay with clathrin (Hippocampus, 0.1 mg/kg s.c. 1 hour before ischemia, 1 hour after ischemia), 56.7± 7.1 % of normal value; in the assay on clathrin (Hippocampus, 1 mg/kg s.c. 1 hour before ischemia and once a day for 4 days, 4 days after ischemia), 51.2±10.7 % of normal value; with clathrin (Hippocampus, 1 mg/kg s.c. 1 hour before ischemia, 1 hour after ischemia), 61.6±12.2 % of normal value; in the assay with clathrin (Hippocampus, 10 mg/kg s.c. 1 hour before ischemia and once a day for 4 days, 4 days after ischemia) it was 64.6±15.0 % of normal value. Besides, the Clathrin protein concentration in the assay on clathrin (Striatum, 0.01 mg/kg s.c. 1 hour before ischemia, 1 hour after ischemia) is reported as 70.5±21.1 % of normal value; with clathrin (Striatum, 0.1 mg/kg s.c. 1 hour before ischemia and once a day for 4 days, 4 days after ischemia) it was 53.6±11.3 % of normal value; in the assay on clathrin (Striatum, 0.1 mg/kg s.c. 1 hour before ischemia, 1 hour after ischemia), 68.7±11.9 % of normal value; with clathrin (Striatum, 1 mg/kg s.c. 1 hour before ischemia and once a day for 4 days, 4 days after ischemia), 57.9± 5.3 % of normal value; in the assay on clathrin (Striatum, 1 mg/kg s.c. 1 hour before ischemia, 1 hour after ischemia), 69.8±12.7 % of normal value; with clathrin (Striatum, 10 mg/kg s.c. 1 hour before ischemia and once a day for 4 days, 4 days after ischemia) it was 62.0±10.2 % of normal value. The “Total score, Clathrin” value in the assay with clathrin (setting [1]) and in the assay with clathrin (setting [2]) was 0/0 (0) in each case.
